Values of other authors in US11708377B2, “Analogues and derivatives of cephalotaxine and methods for making and using the compounds” (Oregon State University, priority 2019, dated 2023).

Key:
leukemia cells = settings: background statement, no figure given
[1] = background statement; lacks the ester sidechain of HHT

SMILES	cytotoxicity against leukemia cells (leukemia cells)	biological activity [1]
COC(=O)C[C@](O)(CCCC(C)(C)O)C(=O)O[C@@H]1C(OC)=C[C@]23CCCN2CCc2cc4c(cc2[C@H]13)OCO4 [HHT, (−)-Homoharringtonine]	nanomolar cytotoxicity	–
COC1=C[C@]23CCCN2CCc2cc4c(cc2[C@@H]3[C@@H]1O)OCO4 [Cephalotaxine, (−)-Cephalotaxine]	–	biologically inactive
